In publication PMC8568133, “Evaluation of bisphenylthiazoles as a promising class for combating multidrug-resistant fungal infections” (PLoS ONE, 2021):
≈ marks a conversion by molar mass, not a printed value. Where two headings read alike, the source gives them in different places.

How the values were obtained:
Type in all cases: cell-based
Aspergillus fumigatus = assay: Antifungal broth microdilution MIC (50% growth inhibition); conditions: Aspergillus fumigatus
Procedure, shortened: (§1)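 Read-out was the lowest concentration inhibiting fungal growth by 50% (MIC) or reducing it by 99.9% after subculture onto YPD agar (MFC). Testing followed CLSI broth microdilution on clinical isolates at 35 °C, 24 h for Candida and 48 h for Cryptococcus.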

Candida parapsilosis = assay: as above; conditions: Lodderomyces parapsilosis, read-out: MIC
Procedure, shortened: as §1

Candida krusei = assay: Antifungal broth microdilution MIC (50% growth inhibition) and MFC; conditions: Pichia kudriavzevii; for MIC: read-out: MIC
Procedure, shortened: (§2)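 CLSI broth microdilution, 128 to 0.06 μg/mL in triplicate, on clinical isolates; MIC is lowest concentration giving 50% growth inhibition after 24 h (Candida) or 48 h (Cryptococcus) at 35 °C. MFC: no-growth wells plated on YPD agar, 24 h at 37 °C, 99.9% reduction; three independent repeats.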

Candida glabrata = assay: as above; conditions: Nakaseomyces glabratus; for MIC: read-out: MIC
Procedure, shortened: as §2

Candida auris = assay: as above; conditions: for MIC: read-out: MIC
Procedure, shortened: as §1

Candida tropicalis = assay: as above; conditions: Candida tropicalis, ATCC1369, C. tropicalis ATCC 1369
Procedure, shortened: as §2

[1] = ATCC66032, C. glabrata ATCC 66032

Cc1nc(-c2ccc(-c3ccccc3)cc2)sc1-c1nnc(N[C@@H]2CCCC[C@@H]2N)o1 (relative stereo) [Compound 17, cis-N-{5-[2-((1,1’-Biphenyl)-4-yl)-4-methylthiazol-5-yl]-1,3,4-oxadiazol-2-yl}cyclo-hexane-1,2-diamine]
MIC (Aspergillus fumigatus; A. fumigatus NR 35303, read-out: MIC): 4 µg/mL (≈ 9.27 µM) | MIC (Aspergillus fumigatus; A. fumigatus NR 35304, read-out: MIC): 4 µg/mL (≈ 9.27 µM) | MIC (Aspergillus fumigatus; tested A. fumigatus isolates (Table 5), read-out: MIC against Aspergillus fumigatus): 4 µg/mL (≈ 9.27 µM) | MIC (Candida parapsilosis; ATCC22019, C. parapsilosis ATCC 22019): 1 µg/mL (≈ 2.32 µM) | MIC (Candida parapsilosis; C. parapsilosis CAB 502638): 1 µg/mL (≈ 2.32 µM) | MIC (Candida krusei; ATCC34135, C. krusei ATCC 34135): 1 µg/mL (≈ 2.32 µM) | MFC (Candida krusei; C. krusei CAB 396420): > 64 µg/mL | MIC (Candida krusei; C. krusei CAB 396420): 1 µg/mL (≈ 2.32 µM) | MFC (Candida glabrata; [1]): > 64 µg/mL | MIC (Candida glabrata; [1]): 0.5 µg/mL (≈ 1.16 µM) | MFC (Candida glabrata; C. glabrata ATCC MYA-2950): > 64 µg/mL | MIC (Candida glabrata; C. glabrata ATCC MYA-2950): 0.5 µg/mL (≈ 1.16 µM) | MFC (Candida auris; Candida auris 390): >64 µg/mL | MIC (Candida auris; Candidozyma auris, C. auris 381): 1 µg/mL (≈ 2.32 µM) | MIC (Candida auris; Candidozyma auris, C. auris 382): 2 µg/mL (≈ 4.63 µM) | MIC (Candida auris; Candidozyma auris, C. auris 383): 1 µg/mL (≈ 2.32 µM) | MIC (Candida auris; Candidozyma auris, C. auris 384): 1 µg/mL (≈ 2.32 µM) | MIC (Candida auris; Candidozyma auris, C. auris 385): 2 µg/mL (≈ 4.63 µM) | MIC (Candida auris; Candidozyma auris, C. auris 386): 1 µg/mL (≈ 2.32 µM) | MIC (Candida auris; Candidozyma auris, C. auris 387): 2 µg/mL (≈ 4.63 µM) | MIC (Candida auris; Candidozyma auris, C. auris 388): 1 µg/mL (≈ 2.32 µM) | MIC (Candida auris; Candidozyma auris, C. auris 389): 2 µg/mL (≈ 4.63 µM) | MIC (Candida auris; Candidozyma auris, C. auris 390): 1 µg/mL (≈ 2.32 µM) | MFC (Candida auris; Candidozyma auris, Candida auris 389, read-out: MFC): > 64 µg/mL | MFC (Candida tropicalis): > 64 µg/mL | MIC (Candida tropicalis; read-out: MIC): 4 µg/mL (≈ 9.27 µM)
